US8326545B2, “System and method for displaying a pharmacokinetic and pharmacodynamic drug model” (General Electric Company, priority 2006, dated 2012)

Experiments:
[1] = Age MAC Awake (variation on MAC that accounts for age and adjusts to consciousness); type: in vivo, patient
Source text: Interactions are labeled “unknown” when (CeAA>0.3%*AgeMACawake); wherein AGEMACawake is a variation on MAC that accounts for age and adjusts to consciousness.

[2] = minimum alveolar concentration; cited from earlier work

Row | SMILES | Age MAC Awake ([1]; age 18) | Age MAC Awake ([1]; donor one) | Age MAC Awake ([1]; donor two) | MAC [2]
1 | FC(F)OC(F)C(F)(F)F (stereo not drawn) [Desflurane] | 2.396 | 2.055 | 1.450 | 6
2 | FC(F)OC(F)(F)C(F)Cl (stereo not drawn) [Enflurane] | 0.679 | 0.582 | 0.411 | 1.7
3 | FC(F)(F)C(Cl)Br (stereo not drawn) [Halothane] | 0.481 | 0.413 | 0.291 | 0.75
4 | FC(F)OC(Cl)C(F)(F)F (stereo not drawn) [Isoflurane] | 0.459 | 0.394 | 0.278 | 1.15
5 | [N-]=[N+]=O [Nitrous Oxide] | 64.148 | 55.021 | 38.817 | 100
6 | FCOC(C(F)(F)F)C(F)(F)F [Sevoflurane] | 0.819 | 0.702 | 0.495 | 2.05
